Measured values published in patent US11865102B2, “Cannabidiol preparations and its uses” (GW Research Limited, priority 2018, dated 2024).
Where two headings read alike, the source gives them in different places.

Columns and labels:
[1] = test system: human iPSC-derived cerebral cortical neural stem cells (hNSCs); test: Neurogenesis and neuronal differentiation of hNSCs (MAP2 immunocytochemistry); type: cell-based; conditions: 0.1 and 1 μM, 3 or 5 days
Procedure: Human iPSC-derived cerebral cortical neural stem cells (hNSCs) (Axol Bioscience Inc., UK) were cultured as monolayers at a density of 1.010^4 cells/cm^2 on 100 mm diameter Petri dishes. The cells were collected from their original cryovial, suspended in Plating-XF Medium and plated on Petri dishes coated with SureBondXF 1× working solution prepared in D-PBS (without calcium or magnesium). hNSCs were incubated at 37° C. and 5% CO2 and 24 hours after of incubation, the plating medium was replaced with fresh Neural Expansion-XF Medium supplemented with the growth factors Recombinant Human EGF and Recombinant Human FGF2 (final concentration of 20 ng/mL (1×) of FGF2 and EGF). The cultures were re-fed with fresh Neural Expansion-XF supplemented with EGF and FGF2 every two days. When the hNSCs reached approximately 80% confluence, they were prepared for treatment. […]
Digital Leica LAS AF 2.2.0 software (Live Data Mode system) was used for counting Map2ab+DAPI+ cells. […] For each experimental condition, cells from 3 different tubes were each analyzed in triplicate and 3 frames were collected at 20× magnification. Data were analyzed with GraphPad Prism 6 software, version 6.05 (GraphPad, Inc.) and are expressed as mean±SEM. Statistical differences among groups were determined by two-way ANOVA followed by post hoc Bonferroni tests for comparison among means. […]

[2] = test system: sub-chronic PCP-induced deficit in novel object recognition; test: Novel object recognition (NOR) test after sub-chronic PCP; type: in vivo; conditions: rat dose multiplied by 0.16 (FDA dose conversion guidance)
Procedure: Female hooded-Lister rats were used for this experiment. Rats were housed in groups of 5 under standard laboratory conditions under a 12 hr light: dark cycle, with lights on at 0700 hr. Testing was carried out in the light phase. Rats were randomly assigned to two treatment groups and treated with vehicle, n=20 (distilled water, i.p.) or Phencyclidine hydrochloride (PCP), n=100 (2 mg/kg, i.p. twice daily for 7-days). PCP was dissolved in distilled water. This was followed by a 7-day wash out period before the rats were tested following acute treatment with CBD, risperidone or vehicle. […]
Following the 3 minute habituation period, the rats are given two 3 minute trials (T1 and T2) which were separated by a 1 minute inter-trial interval in the home cage during which the objects were changed. Behavior in all trials was recorded on video for subsequent blind scoring. […]
The exploration time(s) of each object (A, B, familiar and novel) in each trial were recorded using two stopwatches and the following factors were calculated: total exploration time of both objects in the acquisition trial, total exploration time of both objects in the retention trial. Habituation of exploratory activity included the exploration time, as measured by the number of lines crossed, for both trials.
All data were assessed for normality using D'Agostino and Pearson normality test. […]

[3] = test system: MES-induced tonic seizures; test: Maximal electroshock seizure (MES) test; type: in vivo; conditions: Mus musculus, ip, i.p. 60 minutes prior to MES, male C57Bl6 mice, sigmoidal curve, constant top, read-out: ED50 protecting 50% of mice against MES-induced tonic seizures
Procedure: This study was performed using male C57Bl6 mice, weighing between 23.6-31.2 g, which were purchased from a licensed breeder (Charles River, UK). Naïve mice were acclimatized to the procedure room in their home cages, with food and water available ad libitum. Animals were housed in groups of 2-3, in standard caging on a 12 hr/12 hr light-dark cycle. All animals were tail marked and weighed at the beginning of the study. Animals were randomly assigned to vehicle or treatment groups.
The following drugs were used in this study: synthetic CBD (SYN) and botanically derived purified CBD (BOT). The control vehicle used was (1:1:18), which was 5% Ethanol, 5% Kolliphor, 90% saline, and has been used extensively throughout similar seizure tests. All drugs were dissolved in the control vehicle for comparison. Animals were dosed (10 ml/kg) i.p. at 60 minutes prior to the administration of the maximal electroshock seizure (IVIES) test. In addition to the vehicle group, the dosage groups used for each treatment and included doses of 10, 50, 100 (Experiment 1 only), 150 and 200 mg/kg for CBD (SYN) and CBD (BOT). The number of animals in each of these groups were 10 (n=10).
Two separate experiments were undertaken using two different batches of the botanically derived purified CBD. […]

SMILES: C=C(C)[C@@H]1CCC(C)=C[C@H]1c1c(O)cc(CCCCC)cc1O [Synthetic CBD, 2-[(1R,6R)-3-Methyl-6-(1-methylethenyl)-2-cyclohexen-1-yl]-5-pentyl-1,3-benzenediol]
- Effect on neurogenesis and neuronal differentiation of hNSCs relative to vehicle-treated cells [1]: did not have a significant effect
- Human equivalent of the rat MED [2]: 1.6 mg/kg/day
- ED50 ([3]; Experiment 1): 77.6 mg/kg
- ED50 ([3]; Experiment 2): 77.4 mg/kg
